Patent US9266876B2 (Actelion Pharmaceuticals Ltd., priority 2012, dated 2016)

Columns and labels:
human CXCR3A = human CXCR3A (Homo sapiens (Human), UniProt P49682); test: FLIPR assay; type: cell-based; conditions: CHO-K1 cells expressing the human CXCR3A coupled to Galpha(16); CXCL10 agonist 20 nM; Fluo-4-AM fluorescence; mean values if determined several times
Summary of the method: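 CHO-K1 cells expressing CXCR3A coupled to Gα16 were loaded with Fluo-4-AM for 1 h in Hepes-buffered HBSS, pH 7.4, with 5 mM probenecid. Compound dilutions were added on the FLIPR, followed by CXCL10 (added as a 20 nM solution). Baseline-subtracted peak fluorescence was fitted to a single-site curve for IC50.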

CXCR3 = CXCR3 (Homo sapiens (Human), UniProt P49682); test: Receptor internalization assay; type: cell-based; conditions: human whole blood; final CXCL10 concentration 9 nM; 30 min 37° C.; CXCR3 cell surface expression on CD3 positive cells, flow cytometer; read-out: Internalization IC50
Summary of the method: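 In human whole blood, compounds were incubated with CXCL10 (9 nM final) for 30 min at 37 °C to drive receptor internalization, then stained with anti-CXCR3/CD3 antibodies and lysed of red cells. Flow cytometry measured mean surface CXCR3 fluorescence on CD3+ cells, and IC50 came from single-site dose-response fits.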

Sequence of CXCR3 (P49682 whole entry): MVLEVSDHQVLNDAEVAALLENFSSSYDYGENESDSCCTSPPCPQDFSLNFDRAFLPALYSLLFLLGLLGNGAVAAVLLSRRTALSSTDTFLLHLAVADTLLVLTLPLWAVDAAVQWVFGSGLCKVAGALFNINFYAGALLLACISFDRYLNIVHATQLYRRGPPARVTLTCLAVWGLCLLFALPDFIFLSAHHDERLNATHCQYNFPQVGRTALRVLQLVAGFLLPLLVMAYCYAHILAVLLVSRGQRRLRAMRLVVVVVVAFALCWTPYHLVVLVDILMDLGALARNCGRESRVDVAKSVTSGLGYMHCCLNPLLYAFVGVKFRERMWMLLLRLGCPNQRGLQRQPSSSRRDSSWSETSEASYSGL
Sequence of human CXCR3A (P49682 whole entry): as above

Row | Compound | IC50 (human CXCR3A) | IC50 (CXCR3)
1 | C[C@@H]1CN(c2sc(C(F)(F)F)nc2-c2nc3cncnc3[nH]2)CCN1C(=O)Cn1cnc2cccnc21 [Example 171, 2-Imidazo[4,5-b]pyridin-3-yl-1-{(R)-2-methyl-4-[4-(9H-purin-8-yl)-2-trifluoromethyl-thiazol-5-yl]-piperazin-1-yl}-ethanone] | 1 nM | 1080 nM
2 | C[C@@H]1CN(c2sc(C(F)(F)F)nc2-c2nc3ccccc3[nH]2)CCN1C(=O)Cn1cccn1 [Example 173, 1-{(R)-4-[4-(1H-Benzoimidazol-2-yl)-2-trifluoromethyl-thiazol-5-yl]-2-methyl-piperazin-1-yl}-2-pyrazol-1-yl-ethanone] | 0.5 nM | 395 nM
3 | Cc1ccn(CC(=O)N2CCN(c3sc(C(F)(F)F)nc3-c3nc4ccccc4[nH]3)C[C@H]2C)n1 [Example 174, 1-{(R)-4-[4-(1H-Benzoimidazol-2-yl)-2-trifluoromethyl-thiazol-5-yl]-2-methyl-piperazin-1-yl}-2-(3-methyl-pyrazol-1-yl)-ethanone] | 0.2 nM | 53 nM
4 | C[C@@H]1CN(c2sc(C(F)(F)F)nc2-c2nc3ccccc3[nH]2)CCN1C(=O)Cn1cc(Cl)cn1 [Example 175, 1-{(R)-4-[4-(1H-Benzoimidazol-2-yl)-2-trifluoromethyl-thiazol-5-yl]-2-methyl-piperazin-1-yl}-2-(4-chloro-pyrazol-1-yl)-ethanone] | 0.1 nM | 227 nM
5 | Cc1ccnn1CC(=O)N1CCN(c2sc(C(F)(F)F)nc2-c2nc3ccccc3[nH]2)C[C@H]1C [Example 176, 1-{(R)-4-[4-(1H-Benzoimidazol-2-yl)-2-trifluoromethyl-thiazol-5-yl]-2-methyl-piperazin-1-yl}-2-(5-methyl-pyrazol-1-yl)-ethanone] | 0.1 nM | 111 nM
6 | Cc1nc(C)n(CC(=O)N2CCN(c3sc(C(F)(F)F)nc3-c3nc4ccccc4[nH]3)C[C@H]2C)n1 [Example 178, 1-{(R)-4-[4-(1H-Benzoimidazol-2-yl)-2-trifluoromethyl-thiazol-5-yl]-2-methyl-piperazin-1-yl}-2-(3,5-dimethyl-[1,2,4]triazol-1-yl)-ethanone] | 2 nM | 224 nM
7 | C[C@@H]1CN(c2sc(C(F)(F)F)nc2-c2nc3ccc(N4CCN(C)CC4)cc3[nH]2)CCN1C(=O)Cn1cccn1 [Example 179, 1-((R)-2-Methyl-4-{4-[6-(4-methyl-piperazin-1-yl)-1H-benzoimidazol-2-yl]-2-trifluoromethyl-thiazol-5-yl}-piperazin-1-yl)-2-pyrazol-1-yl-ethanone] | 2 nM | 138 nM
8 | C[C@@H]1CN(c2sc(C(F)(F)F)nc2-c2nc3ccccc3n2C)CCN1C(=O)Cn1cccn1 [Example 184, 1-{(R)-2-Methyl-4-[4-(1-methyl-1H-benzoimidazol-2-yl)-2-trifluoromethyl-thiazol-5-yl]-piperazin-1-yl}-2-pyrazol-1-yl-ethanone] | 53 nM | 3420 nM
9 | COCCn1c(-c2nc(C(F)(F)F)sc2N2CCN(C(=O)Cn3cccn3)[C@H](C)C2)nc2ccccc21 [Example 185, 1-((R)-4-{4-[1-(2-Methoxy-ethyl)-1H-benzoimidazol-2-yl]-2-trifluoromethyl-thiazol-5-yl}-2-methyl-piperazin-1-yl)-2-pyrazol-1-yl-ethanone] | 37 nM | 6620 nM
10 | C[C@@H]1CN(c2scnc2-c2nc3ccccc3[nH]2)CCN1C(=O)Cc1ccccc1-n1nccn1 [Example 186, 1-{(R)-4-[4-(1H-Benzoimidazol-2-yl)-thiazol-5-yl]-2-methyl-piperazin-1-yl}-2-(2-[1,2,3]triazol-2-yl-phenyl)-ethanone] | 4 nM | 1610 nM
11 | C[C@@H]1CN(c2scnc2-c2nc3ccccc3[nH]2)CCN1C(=O)Cn1cc(-c2ccccc2)nn1 [Example 188, 1-{(R)-4-[4-(1H-Benzoimidazol-2-yl)-thiazol-5-yl]-2-methyl-piperazin-1-yl}-2-(4-phenyl-[1,2,3]triazol-1-yl)-ethanone] | 4 nM | 3820 nM
12 | C[C@@H]1CN(c2sc(C(F)(F)F)nc2-c2nc3ccccc3[nH]2)CCN1C(=O)Cn1cc(-c2ccccc2)nn1 [Example 189, 1-{(R)-4-[4-(1H-Benzoimidazol-2-yl)-2-trifluoromethyl-thiazol-5-yl]-2-methyl-piperazin-1-yl}-2-(4-phenyl-[1,2,3]triazol-1-yl)-ethanone] | 2 nM | 1760 nM
13 | C[C@@H]1CN(c2sc(C(F)(F)F)nc2-c2nc3ccccc3[nH]2)CCN1C(=O)Cc1cccc2cccnc12 [Example 190, 1-{(R)-4-[4-(1H-Benzoimidazol-2-yl)-2-trifluoromethyl-thiazol-5-yl]-2-methyl-piperazin-1-yl}-2-quinolin-8-yl-ethanone] | 1 nM | 514 nM
14 | Cc1cnn(CC(=O)N2CCN(c3sc(C(F)(F)F)nc3-c3nc4ccccc4[nH]3)C[C@H]2C)c1 [Example 191, 1-{(R)-4-[4-(1H-Benzoimidazol-2-yl)-2-trifluoromethyl-thiazol-5-yl]-2-methyl-piperazin-1-yl}-2-(4-methyl-pyrazol-1-yl)-ethanone] | 1 nM | 470 nM

The remaining lines, values ahead:

Row | IC50 (human CXCR3A) | IC50 (CXCR3) | Compound
15 | 0.3 nM | 685 nM | C[C@@H]1CN(c2sc(C(F)(F)F)nc2-c2nc3cccnc3[nH]2)CCN1C(=O)Cn1cnc2cccnc21 [Example 169, 2-Imidazo[4,5-b]pyridin-3-yl-1-{(R)-4-[4-(3H-imidazo[4,5-b]pyridin-2-yl)-2-trifluoromethyl-thiazol-5-yl]-2-methyl-piperazin-1-yl}-ethanone]
16 | 6 nM | 1060 nM | C[C@@H]1CN(c2sc(C(F)(F)F)nc2-c2nc3ccncc3[nH]2)CCN1C(=O)Cn1cnc2cccnc21 [Example 170, 2-Imidazo[4,5-b]pyridin-3-yl-1-{(R)-4-[4-(3H-imidazo[4,5-c]pyridin-2-yl)-2-trifluoromethyl-thiazol-5-yl]-2-methyl-piperazin-1-yl}-ethanone]
17 | 1 nM | 73 nM | C[C@@H]1CN(c2sc(C(F)(F)F)nc2-c2nc3ccccc3[nH]2)CCN1C(=O)Cn1cnc2ccccc21 [Example 172, 2-Benzoimidazol-1-yl-1-{(R)-4-[4-(1H-benzoimidazol-2-yl)-2-trifluoromethyl-thiazol-5-yl]-2-methyl-piperazin-1-yl}-ethanone]
18 | 2 nM | 703 nM | C[C@@H]1CN(c2sc(C(F)(F)F)nc2-c2nc3ccc(N(C)C)cc3[nH]2)CCN1C(=O)Cn1cccn1 [Example 180, 1-{(R)-4-[4-(6-Dimethylamino-1H-benzoimidazol-2-yl)-2-trifluoromethyl-thiazol-5-yl]-2-methyl-piperazin-1-yl}-2-pyrazol-1-yl-ethanone]
19 | 58 nM | 3090 nM | C[C@@H]1CN(c2sc(C(F)(F)F)nc2-c2nc3ccc(CN4CCCCC4)cc3[nH]2)CCN1C(=O)Cn1cccn1 [Example 181, 1-{(R)-2-Methyl-4-[4-(6-piperidin-1-ylmethyl-1H-benzoimidazol-2-yl)-2-trifluoromethyl-thiazol-5-yl]-piperazin-1-yl}-2-pyrazol-1-yl-ethanone]
20 | 27 nM | 2240 nM | C[C@@H]1CN(c2sc(C(F)(F)F)nc2-c2nc3ccc(CN(C)C)cc3[nH]2)CCN1C(=O)Cn1cccn1 [Example 182, 1-{(R)-4-[4-(6-Dimethylaminomethyl-1H-benzoimidazol-2-yl)-2-trifluoromethyl-thiazol-5-yl]-2-methyl-piperazin-1-yl}-2-pyrazol-1-yl-ethanone]
21 | 15 nM | 1440 nM | COC1CCN(Cc2ccc3nc(-c4nc(C(F)(F)F)sc4N4CCN(C(=O)Cn5cccn5)[C@H](C)C4)[nH]c3c2)C1 (stereo partly drawn) [Example 183, 1-((R)-4-{4-[6-(3-Methoxy-pyrrolidin-1-ylmethyl)-1H-benzoimidazol-2-yl]-2-trifluoromethyl-thiazol-5-yl}-2-methyl-piperazin-1-yl)-2-pyrazol-1-yl-ethanone]
22 | 0.3 nM | 1110 nM | C[C@@H]1CN(c2scnc2-c2nc3ccccc3[nH]2)CCN1C(=O)CN1C(=O)C(F)(F)c2ccccc21 [Example 187, 1-(2-{(R)-4-[4-(1H-Benzoimidazol-2-yl)-thiazol-5-yl]-2-methyl-piperazin-1-yl}-2-oxo-ethyl)-3,3-difluoro-1,3-dihydro-indol-2-one]
23 | 1 nM | 116 nM | Cc1cc(C)n(CC(=O)N2CCN(c3sc(C(F)(F)F)nc3-c3nc4ccccc4[nH]3)C[C@H]2C)n1 [Example 192, 1-{(R)-4-[4-(1H-Benzoimidazol-2-yl)-2-trifluoromethyl-thiazol-5-yl]-2-methyl-piperazin-1-yl}-2-(3,5-dimethyl-pyrazol-1-yl)-ethanone]
24 | 1 nM | 210 nM | C[C@@H]1CN(c2sc(C(F)(F)F)nc2-c2nc3ccccc3[nH]2)CCN1C(=O)Cn1ccc(C(F)(F)F)n1 [Example 193, 1-{(R)-4-[4-(1H-Benzoimidazol-2-yl)-2-trifluoromethyl-thiazol-5-yl]-2-methyl-piperazin-1-yl}-2-(3-trifluoromethyl-pyrazol-1-yl)-ethanone]
25 | 8 nM | 1410 nM | C[C@@H]1CN(c2sc(C(F)(F)F)nc2-c2nc3ccccc3[nH]2)CCN1C(=O)Cn1cncn1 [Example 194, 1-{(R)-4-[4-(1H-Benzoimidazol-2-yl)-2-trifluoromethyl-thiazol-5-yl]-2-methyl-piperazin-1-yl}-2-[1,2,4]triazol-1-yl-ethanone]
